# Data taken from US20250136559A1, “SMO MODULATOR COMPOUNDS” (OMASS THERAPEUTICS LIMITED, priority 2022, published 2025).
# Columns and labels:
# Assay type in all cases: cell-based
# mouse SMO^WT = target: T1, mouse SMO^WT (Mus musculus, UniProt P56726); test: Mouse assay: Gli1 qPCR in MEF cells stably expressing mouse SMO WT; conditions: mSHh-treated, 24 hours; for IC50: Gli1 inhibition by qPCR, read-out: Mouse WT pIC50 (converted); for Mouse WT % Inh: percentage Gli1 inhibition
# T1 construct: expressed in transfected cells
# Experimental: (§1) Cell culture. All materials were purchased from Sigma-Aldrich, unless otherwise stated.
# (§2) Compound treatment. […] After 1 hour incubation, cells were treated with assay medium containing mSHh prepared at 2.5× of final assay concentrations specified in the text and incubated for a further 24 hours at 37′C in a humidified 95% air/5% CO2 atmosphere prior to qPCR analysis.
# (§3) Cell lysis and one-step qPCR. The Cells-to-CT™ 1-Step TaqMan® Kit was used in conjunction with TaqMan primer-probe assays for the detection of Gli1 (FAM, Mm00494654_m1) and Gusb (VIC, Mm01197698_m1) genes (all purchased from Life Technologies). Following 24 hours cell treatment, spent medium was removed and cells were washed with PBS before the application of lysis and stop solution as per manufacturer's instructions. The qPCR reactions were run in a 384-well PCR plate using master mix prepared according to manufacturer's instructions and cell lysate samples from treatment wells. Real-time PCR amplification was detected using the Bio-Rad CFX384 Touch PCR system. Four experimental replicates (two cell replicates and two qPCR replicates) were performed for each compound concentration tested. Real-time data were analysed using the CFX Maestro software (Bio-Rad) and obtained expression values were converted to percentage Gli1 inhibition by normalising to the average Gli1 expression of mSHh-treated control samples.
# mouse SMO^D473H = target: T2, mouse SMO^D473H (Mus musculus, UniProt P56726, D477H); test: Mouse assay: Gli1 qPCR in MEF cells stably expressing mouse SMO D473H; conditions: mSHh-treated, 24 hours; for IC50: Gli1 inhibition by qPCR, read-out: Mouse D473H pIC50 (converted); for Mouse D473H % Inh: percentage Gli1 inhibition
# T2 construct: expressed in transfected cells
# Experimental: as §1, §2, §3
# mouse SMO^W535L = target: T3, mouse SMO^W535L (Mus musculus, UniProt P56726, W539L); test: Mouse assay: Gli1 qPCR in MEF cells stably expressing mouse SMO W535L; conditions: mSHh-treated, 24 hours; for IC50: Gli1 inhibition by qPCR, read-out: Mouse W535L pIC50 (converted); for Mouse W535L % Inh: percentage Gli1 inhibition
# T3 construct: expressed in transfected cells
# Experimental: as §1, §2, §3
# T2 sequence (P56726 33-793 D477H): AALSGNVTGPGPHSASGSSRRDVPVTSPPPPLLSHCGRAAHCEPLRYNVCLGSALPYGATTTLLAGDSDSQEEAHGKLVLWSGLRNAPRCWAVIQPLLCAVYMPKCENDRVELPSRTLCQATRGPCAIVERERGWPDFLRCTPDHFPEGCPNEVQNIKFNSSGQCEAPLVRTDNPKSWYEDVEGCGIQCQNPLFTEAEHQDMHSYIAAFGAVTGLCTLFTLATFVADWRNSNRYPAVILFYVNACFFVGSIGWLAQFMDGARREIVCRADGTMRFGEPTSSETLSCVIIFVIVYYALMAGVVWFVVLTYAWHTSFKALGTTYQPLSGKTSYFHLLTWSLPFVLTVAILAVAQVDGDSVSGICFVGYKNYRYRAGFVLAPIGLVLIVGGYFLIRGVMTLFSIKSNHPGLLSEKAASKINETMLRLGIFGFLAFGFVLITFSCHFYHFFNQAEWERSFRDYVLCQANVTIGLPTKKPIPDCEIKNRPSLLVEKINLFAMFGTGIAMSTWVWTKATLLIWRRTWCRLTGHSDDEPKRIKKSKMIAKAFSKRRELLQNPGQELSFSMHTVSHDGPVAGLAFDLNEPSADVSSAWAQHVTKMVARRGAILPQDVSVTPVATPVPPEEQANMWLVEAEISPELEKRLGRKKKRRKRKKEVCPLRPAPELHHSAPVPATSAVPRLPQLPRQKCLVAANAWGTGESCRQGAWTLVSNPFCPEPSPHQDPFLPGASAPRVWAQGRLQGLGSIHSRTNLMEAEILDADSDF
# T3 sequence (P56726 33-793 W539L): as the sequence (P56726 33-793 D477H) above, with H445D, W507L counted along it
# T1 sequence (P56726 33-793): as the sequence (P56726 33-793 D477H) above, with H445D counted along it
IC50 (mouse SMO^WT),Mouse WT % Inh (mouse SMO^WT),IC50 (mouse SMO^D473H),Mouse D473H % Inh (mouse SMO^D473H),IC50 (mouse SMO^W535L),Mouse W535L % Inh (mouse SMO^W535L),SMILES
31.6 nM,98.6%,251 nM,97.2%,79.4 nM,64.1%,"O=C(Nc1ccc(-c2nc(CCc3ccccc3)n[nH]2)cc1)c1cccc(CN2CCS(=O)(=O)CC2)c1 [Example 3-31, 3-[(1,1-Dioxo-1,4-thiazinan-4-yl)methyl]-N-[4-[3-(2-phenylethyl)-1H-1,2,4-triazol-5-yl]phenyl]benzamide]"
6.31 nM,99.2%,50.1 nM,98.6%,63.1 nM,78.6%,"Cc1nc(-c2ccc(NC(=O)c3cccc(CN4CCS(=O)(=O)CC4)c3)cc2)oc1C [Example 4-1, N-[4-(4,5-Dimethyl-1,3-oxazol-2-yl)phenyl]-3-[(1,1-dioxo-1,4-thiazinan-4-yl)methyl]benzamide]"
0.2 nM,99.5%,3.16 nM,98.5%,12.6 nM,79.0%,"Cc1oc(-c2ccc(NC(=O)c3ccc(Cl)c(CN4CCS(=O)(=O)CC4)c3)cc2)nc1C1CC1 [Example 4-4, 4-Chloro-N-[4-(4-cyclopropyl-5-methyl-1,3-oxazol-2-yl)phenyl]-3-[(1,1-dioxo-1,4-thiazinan-4-yl)methyl]benzamide]"
7.94 nM,99.9%,100 nM,99.7%,158 nM,63.2%,"O=C(Nc1ccc(-c2cnc(C3CC3)o2)cc1)c1cccc(CN2CCS(=O)(=O)CC2)c1 [Example 4-5, N-[4-(2-Cyclopropyl-1,3-oxazol-5-yl)phenyl]-3-[(1,1-dioxo-1,4-thiazinan-4-yl)methyl]benzamide]"
12.6 nM,99.0%,79.4 nM,99.3%,126 nM,76.9%,O=C(Nc1ccc(-c2cc(C3CC3)no2)cc1)c1cccc(CN2CCS(=O)(=O)CC2)c1 [Example 4-6]
2.51 nM,98.8%,20 nM,99.3%,31.6 nM,76.0%,"O=C(Nc1ccc(-c2cc(C3CC3)on2)cc1)c1cccc(CN2CCS(=O)(=O)CC2)c1 [Example 4-7, N-[4-(5-Cyclopropyl-1,2-oxazol-3-yl)phenyl]-3-[(1,1-dioxo-1,4-thiazinan-4-yl)methyl]benzamide]"
79.4 nM,98.9%,794 nM,94.9%,501 nM,65.9%,"Cl.O=C(Nc1ccc(-c2nnc(C3CC3)o2)cc1)c1cccc(CN2CCS(=O)(=O)CC2)c1 [Example 4-8, N-[4-(5-Cyclopropyl-1,3,4-oxadiazol-2-yl)phenyl]-3-[(1,1-dioxo-1,4-thiazinan-4-yl)methyl]benzamide]"
39.8 nM,99.6%,316 nM,99.1%,794 nM,70.0%,"CN(C)c1nnc(-c2ccc(NC(=O)c3cccc(CN4CCS(=O)(=O)CC4)c3)cc2)o1 [Example 4-9, N-[4-[5-(Dimethylamino)-1,3,4-oxadiazol-2-yl]phenyl]-3-[(1,1-dioxo-1,4-thiazinan-4-yl)methyl]benzamide]"
50.1 nM,99.7%,158 nM,99.5%,158 nM,63.8%,"Cl.O=C(Nc1ccc(-c2nc(C3CC3)no2)cc1)c1cccc(CN2CCS(=O)(=O)CC2)c1 [Example 4-11, N-[4-(3-Cyclopropyl-1,2,4-oxadiazol-5-yl)phenyl]-3-[(1,1-dioxo-1,4-thiazinan-4-yl)methyl]benzamide]"
10 nM,99.6%,39.8 nM,99.8%,158 nM,57.8%,"Cl.O=C(Nc1ccc(-c2noc(C3CC3)n2)cc1)c1cccc(CN2CCS(=O)(=O)CC2)c1 [Example 4-12, N-[4-(5-Cyclopropyl-1,2,4-oxadiazol-3-yl)phenyl]-3-[(1,1-dioxo-1,4-thiazinan-4-yl)methyl]benzamide]"
50.1 nM,98.8%,316 nM,99.0%,501 nM,77.4%,"O=C(Nc1ccc(-c2noc(C3CCC3)n2)cc1)c1cccc(CN2CCS(=O)(=O)CC2)c1 [Example 4-13, N-[4-(5-Cyclobutyl-1,2,4-oxadiazol-3-yl)phenyl]-3-[(1,1-dioxo-1,4-thiazinan-4-yl)methyl]benzamide]"
10 nM,98.2%,200 nM,99.1%,794 nM,74.2%,"O=C(Nc1ccc(-c2noc(C3CCCC3)n2)cc1)c1cccc(CN2CCS(=O)(=O)CC2)c1 [Example 4-14, N-[4-(5-Cyclopentyl-1,2,4-oxadiazol-3-yl)phenyl]-3-[(1,1-dioxo-1,4-thiazinan-4-yl)methyl]benzamide]"
6.31 nM,99.0%,31.6 nM,99.4%,31.6 nM,82.0%,"O=C(Nc1ccc(-c2noc(Cc3ccccc3)n2)cc1)c1cccc(CN2CCS(=O)(=O)CC2)c1 [Example 4-15, N-[4-(5-Benzyl-1,2,4-oxadiazol-3-yl)phenyl]-3-[(1,1-dioxo-1,4-thiazinan-4-yl)methyl]benzamide]"
2 nM,97.5%,12.6 nM,98.8%,20 nM,72.5%,"Cc1ccc(Cc2nc(-c3ccc(NC(=O)c4cccc(CN5CCS(=O)(=O)CC5)c4)cc3)no2)cc1 [Example 4-16, 3-[(1,1-Dioxo-1,4-thiazinan-4-yl)methyl]-N-[4-[5-[(4-methylphenyl)methyl]-1,2,4-oxadiazol-3-yl]phenyl]benzamide]"
2.51 nM,98.7%,15.8 nM,99.2%,39.8 nM,82.7%,"O=C(Nc1ccc(-c2noc(Cc3ccc(Cl)cc3)n2)cc1)c1cccc(CN2CCS(=O)(=O)CC2)c1 [Example 4-18, N-[4-[5-[(4-Chlorophenyl)methyl]-1,2,4-oxadiazol-3-yl]phenyl]-3-[(1,1-dioxo-1,4-thiazinan-4-yl)methyl]benzamide]"
2.51 nM,99.1%,31.6 nM,98.4%,10 nM,51.6%,"O=C(Nc1ccc(-c2cc(C3CC3)n[nH]2)cc1)c1ccc(Cl)c(CN2CCS(=O)(=O)CC2)c1 [Example 4-20, 4-chloro-N-[4-(5-cyclopropyl-1H-pyrazol-3-yl)phenyl]-3-[(1,1-dioxo-1,4-thiazinan-4-yl)methyl]benzamide]"
6.31 nM,99.3%,63.1 nM,99.4%,39.8 nM,76.6%,"O=C(Nc1ccc(-c2cc(Cc3ccccc3)n[nH]2)cc1)c1cccc(CN2CCS(=O)(=O)CC2)c1 [Example 4-21, N-[4-(3-Benzyl-1H-pyrazol-5-yl)phenyl]-3-[(1,1-dioxo-1,4-thiazinan-4-yl)methyl]benzamide]"
0.631 nM,97.9%,7.94 nM,98.1%,10 nM,70.0%,"Cn1nc(-c2ccc(NC(=O)c3ccc(Cl)c(CN4CCS(=O)(=O)CC4)c3)cc2)cc1C1CC1 [Example 4-24, 4-Chloro-N-[4-(5-cyclopropyl-1-methylpyrazol-3-yl)phenyl]-3-[(1,1-dioxo-1,4-thiazinan-4-yl)methyl]benzamide]"
0.398 nM,98.3%,5.01 nM,98.6%,15.8 nM,65.7%,"Cc1c(-c2ccc(NC(=O)c3cccc(CN4CCS(=O)(=O)CC4)c3)cc2)nn(C)c1C1CC1 [Example 4-25, N-[4-(5-Cyclopropyl-1,4-dimethylpyrazol-3-yl)phenyl]-3-[(1,1-dioxo-1,4-thiazinan-4-yl)methyl]benzamide]"
6.31 nM,99.5%,50.1 nM,98.5%,158 nM,77.7%,"Cl.Cn1nc(-c2ccc(NC(=O)c3cccc(CN4CCS(=O)(=O)CC4)c3)cc2)nc1C1CC1 [Example 4-27, N-[4-(5-cyclopropyl-1-methyl-1,2,4-triazol-3-yl)phenyl]-3-[(1,1-dioxo-1,4-thiazinan-4-yl)methyl]benzamide]"
